From article PMC10148881, “Recognition of an Ala-rich C-degron by the E3 ligase Pirh2” (Nature Communications, 2023)
Changes are numbered by the printed parent chain. Like-named read-outs stand apart in the source and are kept apart here. Ends that are not written are not given here. Peptide text beside a SMILES is read from it.

Legend:
Pirh2 (NTD + RING) = target: T1, Pirh2 (NTD + RING) (Homo sapiens, UniProt Q96PM5); assay: ITC of degron peptides with Pirh2 NTD + RING; type: binding
T1 construct: Pirh2 NTD + RING (residues 1–189); 8xHis-SUMO (N, cleaved yes); made in house; host or cells: E. coli BL21 (DE3)
T1 sequence (Q96PM5 1-189): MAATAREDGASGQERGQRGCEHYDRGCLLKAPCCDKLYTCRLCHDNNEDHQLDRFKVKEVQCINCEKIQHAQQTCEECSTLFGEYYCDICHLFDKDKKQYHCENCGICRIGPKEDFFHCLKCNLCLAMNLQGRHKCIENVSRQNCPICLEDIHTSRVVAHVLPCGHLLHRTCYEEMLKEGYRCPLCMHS
Description: The DNA fragments corresponding to human full-length Pirh2 (residues 1–261), Pirh2 NTD + RING (residues 1–189), Pirh2 NTD (residues 1–137), Pirh2 RING + CTD (residues 138–261), Pirh2 RING (residues 138–189) and Pirh2 CTD (residues […]) were cloned by seamless cloning into the pET28-MKH8SUMO vector (Addgene Plasmid #79526), which contains an 8× His-SUMO tag followed by a Tobacco etch virus (TEV) cleavage site. The DNA fragment of Pirh2 (residues 15–191)-linker (GSGSG)-polyAla (AAAAAA) was cloned into the pGEX vector, which contains a GST tag followed by a TEV cleavage site. The recombinant plasmids were transformed into E. coli BL21 (DE3) and the expression of the target proteins was induced with 0.2 mM isopropyl β-D-1-thiogalactopyranoside (IPTG) supplemented with 100 μM ZnCl2 at 18 °C overnight. Cells were harvested by centrifugation and resuspended in lysis buffer (20 mM Tris-HCl pH 8.5, 400 mM NaCl, 5% v/v glycerol, 10 μM ZnCl2 and 2 mM β-mercaptoethanol). The cells were lysed by sonication on ice and the lysates were clarified by centrifugation at 14,000 rpm for 40 min at 4 °C. The lysate containing GST tagged Pirh2-linker-polyAla was collected to incubate with GST beads for 1 h, and nonspecifically bound proteins were washed out by lysis buffer. The GST tag was proteolytically cleaved by adding the TEV protease to the GST beads overnight at 4 °C and the TEV protease was removed by passing through the Ni‐NTA column. The other supernatants were collected to incubate with Ni-NTA beads for 1 h at 4 °C. Nonspecifically bound proteins were washed out of Ni-NTA beads by washing buffer (20 mM Tris-HCl pH 8.5, 400 mM NaCl and 25 mM imidazole pH 8.5) and the fusion proteins were eluted by elution buffer (20 mM Tris-HCl pH 8.5, 400 mM NaCl and 300 mM imidazole pH 8.5). The SUMO tag was cleaved by TEV protease with a molar ration of 1: 20 in dialysis buffer (20 mM Tris-HCl pH 8.5 and 300 mM NaCl) at 4 °C overnight. The samples were reloaded onto the Ni-NTA column to remove the cleaved SUMO tag and TEV protease. Finally, all of the acquired proteins were further purified by size exclusion chromatography (Superdex 200 Increase 10/300 GL, GE healthcare), which was pre-equilibrated with gel-filtration buffer (20 mM Tris-HCl pH 7.5, 150 mM NaCl, 10 μM ZnCl2 and 1 mM DTT). Purified proteins were concentrated and stored at −80 °C for later use. Expression and purification of the mutants were performed in the same way as wild-type proteins.
Isothermal titration calorimetry (ITC) measurements were performed at 16 °C using a MicroCal PEAQ-ITC instrument (Malvern Panalytical). Proteins and peptides were prepared in an ITC buffer (20 mM Tris-HCl pH 7.5, 150 mM NaCl and 10 μM Zn^2+). ITC experiments were performed by titrating 1.5 μL (with the exception of the first injection of 0.5 μL) of peptides (0.6–1.0 mM) into cell containing 180–220 μM proteins, with a spacing time of 90 s and a reference power of 10 μcal s^−1. The titration data were analyzed using the one-site binding model from MicroCal PEAQ-ITC Analysis Software version 1.30. All ITC assays were repeated at least three times independently with similar results.

Pirh2 NTD = target: T2, Pirh2 NTD (Homo sapiens, UniProt Q96PM5); assay: ITC of degron peptide with Pirh2 NTD; details: 16 °C, 20 mM Tris-HCl pH 7.5, 150 mM NaCl, 10 μM Zn2+, one-site binding model, repeated at least three times
T2 construct: Pirh2 NTD (residues 1–137); 8xHis-SUMO (N, cleaved yes); made in house; host or cells: E. coli BL21 (DE3)
T2 sequence (Q96PM5 1-137): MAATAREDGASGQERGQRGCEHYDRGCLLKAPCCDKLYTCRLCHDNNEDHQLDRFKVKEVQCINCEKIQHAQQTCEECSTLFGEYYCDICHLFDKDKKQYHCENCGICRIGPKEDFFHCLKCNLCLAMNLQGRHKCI
Description: (§1) The DNA fragments corresponding to human full-length Pirh2 (residues 1–261), Pirh2 NTD + RING (residues 1–189), Pirh2 NTD (residues 1–137), Pirh2 RING + CTD (residues 138–261), Pirh2 RING (residues 138–189) and Pirh2 CTD (residues 187–261) were cloned by seamless cloning into the pET28-MKH8SUMO vector (Addgene Plasmid #79526), which contains an 8× His-SUMO tag followed by a Tobacco etch virus (TEV) cleavage site. The DNA fragment of Pirh2 (residues 15–191)-linker (GSGSG)-polyAla (AAAAAA) was cloned into the pGEX vector, which contains a GST tag followed by a TEV cleavage site. The recombinant plasmids were transformed into E. coli BL21 (DE3) and the expression of the target proteins was induced with 0.2 mM isopropyl β-D-1-thiogalactopyranoside (IPTG) supplemented with 100 μM ZnCl2 at 18 °C overnight. Cells were harvested by centrifugation and resuspended in lysis buffer (20 mM Tris-HCl pH 8.5, 400 mM NaCl, 5% v/v glycerol, 10 μM ZnCl2 and 2 mM β-mercaptoethanol). The cells were lysed by sonication on ice and the lysates were clarified by centrifugation at 14,000 rpm for 40 min at 4 °C. […]
(§2) Isothermal titration calorimetry (ITC) measurements were performed at 16 °C using a MicroCal PEAQ-ITC instrument (Malvern Panalytical). […] The titration data were analyzed using the one-site binding model from MicroCal PEAQ-ITC Analysis Software version 1.30. […]

Pirh2 S155D = target: T3, Pirh2 S155D (Homo sapiens, UniProt Q96PM5, S155D); assay: ITC of Ala6/C-degron peptide with mutant Pirh2 S155D; type: binding; details: Fig. 4a
T3 construct: Pirh2 NTD + RING (residues 1–189); 8xHis-SUMO (N, cleaved yes); made in house; host or cells: E. coli BL21 (DE3)
T3 sequence (Q96PM5 1-189 S155D): T1 sequence (Q96PM5 1-189) with S155D
Description: as §1, §2

full-length Pirh2 = target: T4, full-length Pirh2 (Homo sapiens, UniProt Q96PM5); assay: ITC of degron peptide with full-length Pirh2; details: 16 °C, 20 mM Tris-HCl pH 7.5, 150 mM NaCl, 10 μM Zn2+, one-site binding model, repeated at least three times
T4 construct: human full-length Pirh2 (residues 1–261); 8xHis-SUMO (N, cleaved yes); made in house; host or cells: E. coli BL21 (DE3)
T4 sequence (Q96PM5 1-261): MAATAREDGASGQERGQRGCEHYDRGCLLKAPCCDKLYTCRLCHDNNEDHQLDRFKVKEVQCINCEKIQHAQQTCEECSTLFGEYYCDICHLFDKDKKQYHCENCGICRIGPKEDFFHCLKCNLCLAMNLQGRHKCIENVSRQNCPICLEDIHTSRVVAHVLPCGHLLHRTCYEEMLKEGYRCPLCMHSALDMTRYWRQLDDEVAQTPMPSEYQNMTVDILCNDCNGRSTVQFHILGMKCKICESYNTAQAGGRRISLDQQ
Description: as §1, §2

Pirh2 I107D = target: T5, Pirh2 I107D (Homo sapiens, UniProt Q96PM5, I107D); assay: ITC of Ala6/C-degron peptide with mutant Pirh2 I107D; type: binding; details: Fig. 4a
T5 construct: Pirh2 NTD + RING (residues 1–189); 8xHis-SUMO (N, cleaved yes); made in house; host or cells: E. coli BL21 (DE3)
T5 sequence (Q96PM5 1-189 I107D): T1 sequence (Q96PM5 1-189) with I107D
Description: as §1, §2

Pirh2 D94A = target: T6, Pirh2 D94A (Homo sapiens, UniProt Q96PM5, D94A); assay: ITC of Ala6/C-degron peptide with mutant Pirh2 D94A; type: binding; details: Fig. 4a
T6 construct: Pirh2 NTD + RING (residues 1–189); 8xHis-SUMO (N, cleaved yes); made in house; host or cells: E. coli BL21 (DE3)
T6 sequence (Q96PM5 1-189 D94A): T1 sequence (Q96PM5 1-189) with D94A
Description: as §1, §2

Pirh2 R54A = target: T7, Pirh2 R54A (Homo sapiens, UniProt Q96PM5, R54A); assay: ITC of Ala6/C-degron peptide with mutant Pirh2 R54A; type: binding; details: Fig. 4a
T7 construct: Pirh2 NTD + RING (residues 1–189); 8xHis-SUMO (N, cleaved yes); made in house; host or cells: E. coli BL21 (DE3)
T7 sequence (Q96PM5 1-189 R54A): T1 sequence (Q96PM5 1-189) with R54A
Description: as §1, §2

[1] = ITC, 16 °C, 20 mM Tris-HCl pH 7.5, 150 mM NaCl, 10 μM Zn2+, one-site binding model, repeated at least three times, NB = no detectable binding under our experimental conditions, read-out: KD

| Kd (Pirh2 (NTD + RING); [1]) | Compound | further results |
| --- | --- | --- |
| 900 nM | C[C@H](N)C(=O)N[C@@H](C)C(=O)N[C@@H](C)C(=O)N[C@@H](C)C(=O)N[C@@H](C)C(=O)N[C@@H](C)C(=O)O [AAAAAA] |  |
| 2500 nM | C[C@H](N)C(=O)N[C@@H](C)C(=O)N[C@@H](C)C(=O)N[C@@H](C)C(=O)N[C@@H](C)C(=O)O [AAAAA] |  |
| 7400 nM | C[C@H](N)C(=O)N[C@@H](C)C(=O)N[C@@H](C)C(=O)N[C@@H](C)C(=O)O [AAAA] (H-AAAA-OH) |  |
| > 100000 nM | C[C@H](N)C(=O)N[C@@H](C)C(=O)N[C@@H](C)C(=O)O [AAA] |  |
| 500 nM | YKTSAAAAAA [Ala6/C-degron] | Kd (Pirh2 NTD): 5.5 µM; Kd (Pirh2 S155D): 4.5 µM; Kd (full-length Pirh2): 900 nM; Kd (Pirh2 I107D): 9.1 µM; Kd (Pirh2 D94A): 3 µM; Kd (Pirh2 R54A): > 100 µM |
| 13000 nM | YKTSAAIA |  |
| 13000 nM | YKTSAAVA |  |
| 5500 nM | YKTSAKAA |  |
| 2800 nM | YKTSALAA |  |
| 900 nM | YKTSAPAA |  |
| 3000 nM | YKTSASAA |  |
| 500 nM | YKTSATAAAA |  |
| 4500 nM | YKTSSAAA |  |
|  | YKTSTAAAAA | Kd (Pirh2 (NTD + RING)): 500 nM |
